Test results from the NIST ThermoML archive (doi:10.1016/j.jct.2011.01.014).
Numbers after ± are expanded uncertainties.

Experiment: xn = mol fraction of the nth substance listed
Details: 101 kPa, Liquid; for mass density: Vibrating tube method; for speed of sound: sound velocity cell

## CC(=O)[O-].[NH3+]CCO [2-hydroxyethylammonium acetate] + O
288.15 K, x1 = 0.051
  mass density: 1055.26 ± 0.86 kg/m3
  speed of sound: 1676.3 ± 3.2 m/s
288.15 K, x1 = 0.1019
  mass density: 1085.14 ± 0.43 kg/m3
  speed of sound: 1768.9 ± 1.6 m/s
288.15 K, x1 = 0.1963
  mass density: 1116.52 ± 0.32 kg/m3
  speed of sound: 1839 ± 1.3 m/s
288.15 K, x1 = 0.2894
  mass density: 1131.28 ± 0.33 kg/m3
  speed of sound: 1851.1 ± 1.4 m/s
288.15 K, x1 = 0.3959
  mass density: 1140.75 ± 0.49 kg/m3
  speed of sound: 1843.1 ± 1.6 m/s
288.15 K, x1 = 0.5016
  mass density: 1145.83 ± 0.72 kg/m3
  speed of sound: 1833.6 ± 1.9 m/s
288.15 K, x1 = 0.5821
  mass density: 1148.34 ± 0.94 kg/m3
  speed of sound: 1831.6 ± 2 m/s
288.15 K, x1 = 0.6837
  mass density: 1150.31 ± 1.2 kg/m3
  speed of sound: 1824.3 ± 2.3 m/s
288.15 K, x1 = 0.7763
  mass density: 1152.17 ± 1.6 kg/m3
  speed of sound: 1824.4 ± 2.6 m/s
288.15 K, x1 = 0.8761
  mass density: 1153.59 ± 2 kg/m3
  speed of sound: 1817.1 ± 2.8 m/s
288.15 K, x1 = 0.9137
  mass density: 1153.92 ± 2.2 kg/m3
  speed of sound: 1819.5 ± 2.9 m/s
288.15 K, x1 = 1
  mass density: 1154.7 ± 2.6 kg/m3
  speed of sound: 1817.2 ± 3.2 m/s
290.65 K, x1 = 0.051
  mass density: 1054.36 ± 0.84 kg/m3
  speed of sound: 1679 ± 3.1 m/s
290.65 K, x1 = 0.1019
  mass density: 1084.06 ± 0.41 kg/m3
  speed of sound: 1768.6 ± 1.5 m/s
290.65 K, x1 = 0.1963
  mass density: 1115.24 ± 0.31 kg/m3
  speed of sound: 1836.1 ± 1.3 m/s
290.65 K, x1 = 0.2894
  mass density: 1129.93 ± 0.33 kg/m3
  speed of sound: 1847.3 ± 1.4 m/s
290.65 K, x1 = 0.3959
  mass density: 1139.38 ± 0.49 kg/m3
  speed of sound: 1838.7 ± 1.6 m/s
290.65 K, x1 = 0.5016
  mass density: 1144.47 ± 0.72 kg/m3
  speed of sound: 1828.7 ± 1.9 m/s
290.65 K, x1 = 0.5821
  mass density: 1146.91 ± 0.93 kg/m3
  speed of sound: 1826.5 ± 2 m/s
290.65 K, x1 = 0.6837
  mass density: 1148.88 ± 1.2 kg/m3
  speed of sound: 1818.9 ± 2.3 m/s
290.65 K, x1 = 0.7763
  mass density: 1150.75 ± 1.6 kg/m3
  speed of sound: 1818.5 ± 2.6 m/s
290.65 K, x1 = 0.8761
  mass density: 1152.16 ± 2 kg/m3
  speed of sound: 1810.7 ± 2.8 m/s
290.65 K, x1 = 0.9137
  mass density: 1152.5 ± 2.1 kg/m3
  speed of sound: 1812.8 ± 2.9 m/s
290.65 K, x1 = 1
  mass density: 1153.28 ± 2.6 kg/m3
  speed of sound: 1810 ± 3.2 m/s
293.15 K, x1 = 0.051
  mass density: 1053.41 ± 0.84 kg/m3
  speed of sound: 1681.4 ± 3 m/s
293.15 K, x1 = 0.1019
  mass density: 1082.96 ± 0.41 kg/m3
  speed of sound: 1768.1 ± 1.4 m/s
293.15 K, x1 = 0.1963
  mass density: 1113.95 ± 0.31 kg/m3
  speed of sound: 1833.1 ± 1.3 m/s
293.15 K, x1 = 0.2894
  mass density: 1128.59 ± 0.33 kg/m3
  speed of sound: 1843.4 ± 1.4 m/s
293.15 K, x1 = 0.3959
  mass density: 1138.01 ± 0.49 kg/m3
  speed of sound: 1834.2 ± 1.6 m/s
293.15 K, x1 = 0.5016
  mass density: 1143.09 ± 0.72 kg/m3
  speed of sound: 1823.9 ± 1.9 m/s
293.15 K, x1 = 0.5821
  mass density: 1145.54 ± 0.93 kg/m3
  speed of sound: 1821.6 ± 2 m/s
293.15 K, x1 = 0.6837
  mass density: 1147.45 ± 1.2 kg/m3
  speed of sound: 1813.6 ± 2.3 m/s
293.15 K, x1 = 0.7763
  mass density: 1149.34 ± 1.6 kg/m3
  speed of sound: 1812.9 ± 2.6 m/s
293.15 K, x1 = 0.8761
  mass density: 1150.75 ± 2 kg/m3
  speed of sound: 1804.6 ± 2.8 m/s
293.15 K, x1 = 0.9137
  mass density: 1151.09 ± 2.1 kg/m3
  speed of sound: 1806.5 ± 2.9 m/s
293.15 K, x1 = 1
  mass density: 1151.87 ± 2.5 kg/m3
  speed of sound: 1803.2 ± 3.2 m/s
295.65 K, x1 = 0.051
  mass density: 1052.44 ± 0.83 kg/m3
  speed of sound: 1683.6 ± 2.9 m/s
295.65 K, x1 = 0.1019
  mass density: 1081.85 ± 0.41 kg/m3
  speed of sound: 1767.5 ± 1.4 m/s
295.65 K, x1 = 0.1963
  mass density: 1112.66 ± 0.3 kg/m3
  speed of sound: 1830.1 ± 1.3 m/s
295.65 K, x1 = 0.2894
  mass density: 1127.24 ± 0.33 kg/m3
  speed of sound: 1839.5 ± 1.4 m/s
295.65 K, x1 = 0.3959
  mass density: 1136.62 ± 0.49 kg/m3
  speed of sound: 1829.7 ± 1.6 m/s
295.65 K, x1 = 0.5016
  mass density: 1141.71 ± 0.72 kg/m3
  speed of sound: 1819.1 ± 1.9 m/s
295.65 K, x1 = 0.5821
  mass density: 1144.18 ± 0.93 kg/m3
  speed of sound: 1816.5 ± 2 m/s
295.65 K, x1 = 0.6837
  mass density: 1146.02 ± 1.2 kg/m3
  speed of sound: 1808.4 ± 2.3 m/s
295.65 K, x1 = 0.7763
  mass density: 1147.92 ± 1.6 kg/m3
  speed of sound: 1807.5 ± 2.6 m/s
295.65 K, x1 = 0.8761
  mass density: 1149.33 ± 2 kg/m3
  speed of sound: 1798.7 ± 2.8 m/s
295.65 K, x1 = 0.9137
  mass density: 1149.67 ± 2.1 kg/m3
  speed of sound: 1800.5 ± 2.9 m/s
295.65 K, x1 = 1
  mass density: 1150.45 ± 2.5 kg/m3
  speed of sound: 1796.8 ± 3.2 m/s
298.15 K, x1 = 0.051
  mass density: 1051.43 ± 0.83 kg/m3
  speed of sound: 1685.5 ± 2.8 m/s
298.15 K, x1 = 0.1019
  mass density: 1080.72 ± 0.41 kg/m3
  speed of sound: 1766.7 ± 1.4 m/s
298.15 K, x1 = 0.1963
  mass density: 1111.36 ± 0.3 kg/m3
  speed of sound: 1827 ± 1.3 m/s
298.15 K, x1 = 0.2894
  mass density: 1125.89 ± 0.32 kg/m3
  speed of sound: 1835.5 ± 1.4 m/s
298.15 K, x1 = 0.3959
  mass density: 1135.24 ± 0.49 kg/m3
  speed of sound: 1825.2 ± 1.6 m/s
298.15 K, x1 = 0.5016
  mass density: 1140.33 ± 0.71 kg/m3
  speed of sound: 1814.2 ± 1.9 m/s
298.15 K, x1 = 0.5821
  mass density: 1142.82 ± 0.93 kg/m3
  speed of sound: 1811.6 ± 2 m/s
298.15 K, x1 = 0.6837
  mass density: 1144.63 ± 1.2 kg/m3
  speed of sound: 1803.3 ± 2.3 m/s
298.15 K, x1 = 0.7763
  mass density: 1146.5 ± 1.6 kg/m3
  speed of sound: 1802.1 ± 2.6 m/s
298.15 K, x1 = 0.8761
  mass density: 1147.91 ± 2 kg/m3
  speed of sound: 1793 ± 2.8 m/s
298.15 K, x1 = 0.9137
  mass density: 1148.26 ± 2.1 kg/m3
  speed of sound: 1794.7 ± 2.9 m/s
298.15 K, x1 = 1
  mass density: 1149.04 ± 2.5 kg/m3
  speed of sound: 1790.7 ± 3.2 m/s
300.65 K, x1 = 0.051
  mass density: 1050.38 ± 0.82 kg/m3
  speed of sound: 1687.2 ± 2.8 m/s
300.65 K, x1 = 0.1019
  mass density: 1079.57 ± 0.41 kg/m3
  speed of sound: 1765.8 ± 1.4 m/s
300.65 K, x1 = 0.1963
  mass density: 1110.06 ± 0.3 kg/m3
  speed of sound: 1823.9 ± 1.2 m/s
300.65 K, x1 = 0.2894
  mass density: 1124.53 ± 0.32 kg/m3
  speed of sound: 1831.6 ± 1.4 m/s
300.65 K, x1 = 0.3959
  mass density: 1133.86 ± 0.49 kg/m3
  speed of sound: 1820.6 ± 1.6 m/s
300.65 K, x1 = 0.5016
  mass density: 1138.94 ± 0.71 kg/m3
  speed of sound: 1809.4 ± 1.9 m/s
300.65 K, x1 = 0.5821
  mass density: 1141.44 ± 0.92 kg/m3
  speed of sound: 1806.7 ± 2 m/s
300.65 K, x1 = 0.6837
  mass density: 1143.27 ± 1.2 kg/m3
  speed of sound: 1798.2 ± 2.3 m/s
300.65 K, x1 = 0.7763
  mass density: 1145.08 ± 1.6 kg/m3
  speed of sound: 1796.9 ± 2.6 m/s
300.65 K, x1 = 0.8761
  mass density: 1146.49 ± 2 kg/m3
  speed of sound: 1787.4 ± 2.8 m/s
300.65 K, x1 = 0.9137
  mass density: 1146.85 ± 2.1 kg/m3
  speed of sound: 1789.1 ± 2.9 m/s
300.65 K, x1 = 1
  mass density: 1147.63 ± 2.5 kg/m3
  speed of sound: 1784.8 ± 3.2 m/s
303.15 K, x1 = 0.051
  mass density: 1049.3 ± 0.82 kg/m3
  speed of sound: 1688.6 ± 2.7 m/s
303.15 K, x1 = 0.1019
  mass density: 1078.39 ± 0.41 kg/m3
  speed of sound: 1764.8 ± 1.4 m/s
303.15 K, x1 = 0.1963
  mass density: 1108.74 ± 0.3 kg/m3
  speed of sound: 1820.6 ± 1.2 m/s
303.15 K, x1 = 0.2894
  mass density: 1123.17 ± 0.32 kg/m3
  speed of sound: 1827.5 ± 1.4 m/s
303.15 K, x1 = 0.3959
  mass density: 1132.47 ± 0.48 kg/m3
  speed of sound: 1816 ± 1.6 m/s
303.15 K, x1 = 0.5016
  mass density: 1137.56 ± 0.71 kg/m3
  speed of sound: 1804.6 ± 1.9 m/s
303.15 K, x1 = 0.5821
  mass density: 1140.07 ± 0.92 kg/m3
  speed of sound: 1801.9 ± 2 m/s
303.15 K, x1 = 0.6837
  mass density: 1141.9 ± 1.2 kg/m3
  speed of sound: 1793.2 ± 2.3 m/s
303.15 K, x1 = 0.7763
  mass density: 1143.67 ± 1.6 kg/m3
  speed of sound: 1791.7 ± 2.6 m/s
303.15 K, x1 = 0.8761
  mass density: 1145.07 ± 2 kg/m3
  speed of sound: 1782 ± 2.8 m/s
303.15 K, x1 = 0.9137
  mass density: 1145.43 ± 2.1 kg/m3
  speed of sound: 1783.6 ± 2.9 m/s
303.15 K, x1 = 1
  mass density: 1146.22 ± 2.5 kg/m3
  speed of sound: 1779 ± 3.2 m/s
305.65 K, x1 = 0.051
  mass density: 1048.18 ± 0.81 kg/m3
305.65 K, x1 = 0.1019
  mass density: 1077.21 ± 0.4 kg/m3
305.65 K, x1 = 0.1963
  mass density: 1107.43 ± 0.3 kg/m3
305.65 K, x1 = 0.2894
  mass density: 1121.8 ± 0.32 kg/m3
305.65 K, x1 = 0.3959
  mass density: 1131.08 ± 0.48 kg/m3
305.65 K, x1 = 0.5016
  mass density: 1136.16 ± 0.71 kg/m3
305.65 K, x1 = 0.5821
  mass density: 1138.68 ± 0.92 kg/m3
305.65 K, x1 = 0.6837
  mass density: 1140.52 ± 1.2 kg/m3
305.65 K, x1 = 0.7763
  mass density: 1142.31 ± 1.6 kg/m3
305.65 K, x1 = 0.8761
  mass density: 1143.65 ± 2 kg/m3
305.65 K, x1 = 0.9137
  mass density: 1144.01 ± 2.1 kg/m3
305.65 K, x1 = 1
  mass density: 1144.8 ± 2.5 kg/m3
